Experimental data as given in patent US8871756B2 (Hoffmann-La Roche Inc., priority 2011, dated 2014).

System: RSV Long strain
Assay: Viral cytopathic effect (CPE) assay, anti-RSV activity
Format: cell-based, Respiratory Syncytial Virus
Conditions: human respiratory syncytial virus, 144 h, RSV Long strain (ATCC); cell viability after 6 days, Cell Counting kit-8
How it was run: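 EC50 was derived from CCK-8 viability at 450/630 nm measured 6 days post-infection. Infection used enough RSV Long strain for approximately 80–90% cytopathic effect, in the presence of half-log serially diluted compound. Cells were plated the day before at 6×10^3 per well in DMEM/10% FBS.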

Row | EC50 [µM] | SMILES
1 | 1.37 | Cc1ccc2nc(N3CCC(F)(F)c4ccccc4C3)cc(N[C@H]3CC[C@@H](N)CC3)c2c1 [Example 110-9, cis-N-[2-(5,5-Difluoro-1,3,4,5-tetrahydro-2H-2-benzazepin-2-yl)-6-methylquinolin-4-yl]cyclohexane-1,4-diamine]
2 | 2.43 | O=S1(=O)CCN(c2cc(NCCO)c3cc(Cl)ccc3n2)Cc2ccccc21 [Example 9-31, 2-{[6-Chloro-2-(1,1-dioxido-2,3-dihydro-1,4-benzothiazepin-4(5H)-yl)quinolin-4-yl]amino}ethanol]
3 | 0.76 | NCCNc1cc(N2CCS(=O)(=O)c3ccccc3C2)nc2ccc([N+](=O)[O-])cc12 [Example 9-20, N-[2-(1,1-Dioxido-2,3-dihydro-1,4-benzothiazepin-4(5H)-yl)-6-nitroquinolin-4-yl]ethane-1,2-diamine]
4 | 2.7 | Cc1ccc2nc(N3CCS(=O)(=O)c4ccccc4C3)cc(N3CC[C@H](O)C3)c2c1 [Example 15-3, (3S)-1-[2-(1,1-Dioxido-2,3-dihydro-1,4-benzothiazepin-4(5H)-yl)-6-methylquinolin-4-yl]pyrrolidin-3-ol]
5 | 0.482 | Cc1ccc2nc(N3CCS(=O)(=O)c4ccccc4C3)cc(N[C@@H]3CCCC[C@H]3N)c2c1 (relative stereo) [Example 3-15, trans-N-[2-(1,1-Dioxido-2,3-dihydro-1,4-benzothiazepin-4(5H)-yl)-6-methylquinolin-4-yl]cyclohexane-1,2-diamine]
6 | 0.017 | Cc1ccc2nc(N3CCC(F)(F)c4ccccc4C3)cc(NCC3(N)COC3)c2c1 [Example 110-1, N-[(3-Aminooxetan-3-yl)methyl]-2-(5,5-difluoro-1,3,4,5-tetrahydro-2H-2-benzazepin-2-yl)-6-methylquinolin-4-amine]
7 | 0.585 | Cc1ccc2nc(N3CCS(=O)(=O)c4ccccc4C3)cc(NCC(C)(O)CO)c2c1 (centres unmarked) [Example 67, 3-{[2-(1,1-Dioxido-2,3-dihydro-1,4-benzothiazepin-4(5H)-yl)-6-methylquinolin-4-yl]amino}-2-methylpropane-1,2-diol]
8 | 2.01 | Cc1ccc2nc(N3CCC(F)(F)c4ccccc4C3)cc(N3CCNCC3)c2c1 [Example 111-1, 5,5-Difluoro-2-[6-methyl-4-(piperazin-1-yl)quinolin-2-yl]-2,3,4,5-tetrahydro-1H-2-benzazepine]
9 | 0.016 | N[C@@H]1CN(c2cc(N3CCS(=O)(=O)c4ccccc4C3)nc3ccncc23)C[C@H]1O (relative stereo) [Example 24, trans-4-Amino-1-[2-(1,1-dioxido-2,3-dihydro-1,4-benzothiazepin-4(5H)-yl)-1,6-naphthyridin-4-yl]pyrrolidin-3-ol]
10 | 4.28 | Cc1ccc2nc(N3CCC(F)(F)c4ccccc4C3)cc(NCCCO)c2c1 [Example 110-6, 3-{[2-(5,5-Difluoro-1,3,4,5-tetrahydro-2H-2-benzazepin-2-yl)-6-methylquinolin-4-yl]amino}propan-1-ol]
11 | 0.248 | Cc1ccc2nc(N3CCS(=O)(=O)c4ccccc4C3)cc(NCC3(CO)COC3)c2c1 [Example 3-9, [3-({[2-(1,1-Dioxido-2,3-dihydro-1,4-benzothiazepin-4(5H)-yl)-6-methylquinolin-4-yl]amino}methyl)oxetan-3-yl]methanol]
12 | 7.75 | Clc1cc(N2CCCc3ccccc3C2)nc2ccccc12 [Example 118-26, 2-(4-Chloroquinolin-2-yl)-2,3,4,5-tetrahydro-1H-2-benzazepine]
13 | 0.323 | COc1ccc2nc(N3CCCc4ccccc4C3)cc(NCCN)c2c1 [Example 118-11, N-[6-Methoxy-2-(1,3,4,5-tetrahydro-2H-2-benzazepin-2-yl)quinolin-4-yl]ethane-1,2-diamine]
14 | 0.022 | COc1ccc2c(c1)CN(c1cc(NCC3(N)COC3)c3ccccc3n1)CCS2(=O)=O [Example 1-7, N-[(3-Aminooxetan-3-yl)methyl]-2-(7-methoxy-1,1-dioxido-2,3-dihydro-1,4-benzothiazepin-4(5H)-yl)-quinolin-4-amine]
